These results are taken from patent publication US10800784B2, “Nitrogen-containing heterocyclic amide compound and pharmaceutical use thereof” (Japan Tobacco Inc., priority 2018, dated 2020).

One assay concerns the target human PDHK1 (hPDHK1) (Homo sapiens (Human), UniProt Q15118). In words: Inhibitory action of PDHK1 activity in vitro (residual PDH activity after PDHK reaction). Format: biochemical. The conditions noted are these: for IC50: PDH/hPDHK1 complex solution, PDHK reaction at room temperature for 45 min, NADH absorbance at 340 nm, read-out: hPDK1 IC50; for inhibition at 0.003 µM: at 3 nmol/L, shown when IC50 value could not be calculated, read-out: hPDHK1 inhibitory rate at the lowest concentration of the test compound. As to the method: (§1) The inhibitory action of PDHK activity was assessed indirectly by measuring the residual PDH activity after PDHK reaction in the presence of a test compound.
(Inhibitory Action of PDHK1 Activity)
In the case of human PDHK1 (hPDHK1, NCBI Reference Database Accession number NM_002610.3), a 1.3 kbp fragment encoding this protein was isolated from human liver cDNA by polymerase chain reaction (PCR). Modified hPDHK1 cDNA wherein FLAG-Tag sequence was added to the N terminus was prepared by PCR and ligated to the NdeI/EcoRI site of pET-17b vector (Merck MGaA, model number 69663-3). The recombinant construct was transformed into Escherichia coli DH5a (TOYOBO, model number DNA-903). The recombinant clones were identified, and plasmid DNA was isolated and subjected to the DNA sequence analysis. One clone which had the expected nucleic acid sequence was selected for expression work.
For expression of hPDHK1 activity, Escherichia coli strain BL21(DE3) cells (Merck KGaA, model number 69450-4) were transformed with the pET17b vector containing modified hPDHK1 cDNA. The Escherichia coli were grown to an optical density 0.6 ([…]) at 30° C. Protein expression was induced by the addition of 500 μmol/L isopropyl-β-thiogalactopyranoside. The Escherichia coli were cultured at 20° C. for 17-18 hr and harvested by centrifugation.
The harvested Escherichia coli was resuspended in a suspension buffer (20 mmol/L N-(2-hydroxyethyl)piperazine-N′-2-ethanesulfonic acid-sodium hydroxide (HEPES-NaOH), 500 mmol/L sodium chloride, 1% ethylene glycol, and 0.1% polyoxyethylene-polyoxypropylene block copolymer (Pluronic F-68), complete, EDTA-free (pH 8.0)) and disrupted by a microfluidizer M-110H (MIZUHO INDUSTRIAL CO., LTD.) or ultrasonication. The precipitate was removed by centrifugation and the supernatant was added to DDDDK-tagged Protein PURIFICATION GEL (MBL, model number 3329). DDDDK-tagged Protein PURIFICATION GEL was washed with a washing buffer (20 mmol/L HEPES-NaOH, 500 mmol/L sodium chloride, 1% ethylene glycol, 0.1% pluronic F-68 (pH 8.0)) and the bound protein was eluted with elution buffer 1 (20 mmol/L HEPES-NaOH, 100 μg/mL peptide (amino acid sequence DYKDDDDK) (SEQ ID NO: 1), 500 mmol/L sodium chloride, 1% ethylene glycol, 0.1% pluronic F-68 (pH 8.0)).
The eluted fractions containing FLAG-Tagged protein were pooled, concentrated by an ultrafiltration method, added to a gel filtration column (HiLoad 26/60 Superdex 200 (GE Healthcare, model number 17-1070-01)), and eluted with elution buffer 2 (20 mmol/L HEPES-NaOH, 150 mmol/L sodium chloride, 0.5 mmol/L ethylenediaminetetraacetic acid (EDTA), 1% ethylene glycol, 0.1% pluronic F-68 (pH 8.0)). The eluted fractions were pooled and preserved at −80° C.
0.025 U/mL PDH (porcine heart PDH complex, Sigma P7032) and 0.5 μg/mL hPDHK1 were mixed in an assay buffer (50 mmol/L 3-morpholinopropanesulfonic acid (pH 7.0), 20 mmol/L dipotassium hydrogen phosphate, 60 mmol/L potassium chloride, 2 mmol/L magnesium chloride, 0.4 mmol/L EDTA, 0.2% poloxamer, 2 mmol/L dithiothreitol), and the mixture was incubated at 4° C. overnight to obtain a PDH/hPDHK1 complex solution. In the assay buffer, 0.025 U/mL PDH was mixed and incubated at 4° C. overnight to prepare a PDH solution.
The test compounds were diluted with dimethyl sulfoxide (DMSO). To measure an inhibitory action of the test compound on the PDHK activity in the PDH/hPDHK1 complex solution, PDH/hPDHK1 complex solution (20 μL), test compound (1.5 μL) and 0.353 μmol/L ATP (diluted with assay buffer) (8.5 μL) were added to a 384 well microplate (Greiner Bio-One 781801) and PDHK reaction was performed at room temperature for 45 min (test compound well). DMSO (1.5 μL) was added to control wells instead of test compound. In addition, DMSO (1.5 μL) was added to blank wells instead of the test compound, and PDH solution was added instead of the PDH/hPDHK1 complex solution. […]

Another assay deals with human PDHK2 (hPDHK2) (Homo sapiens (Human), UniProt Q15119). The assay can be described thus: Inhibitory action of PDHK2 activity in vitro (residual PDH activity after PDHK reaction). The format is biochemical. The conditions noted are these: for IC50: PDH/hPDHK2 complex solution, PDHK reaction at room temperature for 45 min, NADH absorbance at 340 nm, read-out: kPDK2 IC50. The protocol: as §1
(Inhibitory Action of PDHK2 Activity)
In the case of human PDHK2 (hPDHK2, NCBI Reference Database Accession number NM_002611.4), modified hPDHK2 cDNA wherein FLAG-Tag sequence was added to the N terminus of hPDHK2 cDNA clone (pReceiver-M01/PDK2-GeneCopoeia) as the base was prepared by PCR and ligated to the NdeI/EcoRI site of pET-17b vector. The recombinant construct was transformed into Escherichia coli DH5a. The recombinant clones were identified, and plasmid DNA was isolated and subjected to the DNA sequence analysis. One clone which had the expected nucleic acid sequence was selected for expression work.
For expression of hPDHK2 activity, Escherichia coli strain BL21(DE3) cells were transformed with the pET17b vector containing modified hPDHK2 cDNA. The Escherichia coli were grown to an optical density 0.6 ([…]) at 30° C. Protein expression was induced by the addition of 500 μmol/L isopropyl-β-thiogalactopyranoside. The Escherichia coli were cultured at 20° C. for 17-18 hr and harvested by centrifugation. The harvested Escherichia coli was resuspended in a suspension buffer (20 mmol/L HEPES-NaOH, 500 mmol/L sodium chloride, 1% ethylene glycol, 0.1% pluronic F-68 (pH 8.0), cOmplete, EDTA-free (pH 8.0)), and disrupted by a microfluidizer. The precipitate was removed by centrifugation and the supernatant was added to DDDDK-tagged Protein PURIFICATION GEL. DDDDK-tagged Protein PURIFICATION GEL was washed with a washing buffer (20 mmol/L HEPES-NaOH, 500 mmol/L sodium chloride, 1% ethylene glycol, 0.1% pluronic F-68 (pH 8.0)) and the bound protein was eluted with elution buffer 1 (20 mmol/L HEPES-NaOH, 100 μg/mL peptide (amino acid sequence DYKDDDDK) (SEQ ID NO: 1), 500 mmol/L sodium chloride, 1% ethylene glycol, 0.1% pluronic F-68 (pH 8.0)). The eluted fractions containing FLAG-Tagged protein were pooled, concentrated by an ultrafiltration method, added to a gel filtration column (HiLoad 26/60 Superdex 200), and eluted with elution buffer 2 (20 mmol/L HEPES-NaOH, 150 mmol/L sodium chloride, 0.5 mmol/L ethylenediaminetetraacetic acid (EDTA), 1% ethylene glycol, 0.1% pluronic F-68 (pH 8.0)). The eluted fractions were pooled and preserved at −80° C.
0.025 U/mL PDH and 0.5 μg/mL hPDHK2 were mixed in an assay buffer (50 mmol/L 3-morpholinopropanesulfonic acid (pH 7.0), 20 mmol/L dipotassium hydrogen phosphate, 60 mmol/L potassium chloride, 2 mmol/L magnesium chloride, 0.4 mmol/L EDTA, 0.2% poloxamer, 2 mmol/L dithiothreitol), and the mixture was incubated at 4° C. overnight to obtain a PDH/hPDHK2 complex solution. In the assay buffer, 0.025 U/mL PDH was mixed and incubated at 4° C. overnight to prepare a PDH solution.
The test compounds were diluted with DMSO. To measure an inhibitory action of the test compound on the PDHK activity in the PDH/hPDHK2 complex solution, PDH/hPDHK2 complex solution (20 μL), test compound (1.5 μL) and 1.06 μmol/L ATP (diluted with assay buffer) (8.5 μL) were added to a 384 well microplate and PDHK reaction was performed at room temperature for 45 min (test compound well). DMSO (1.5 μL) was added to control wells instead of test compound. In addition, DMSO (1.5 μL) was added to blank wells instead of the test compound, and PDH solution was added instead of the PDH/hPDHK2 complex solution. To measure an inhibitory action of the test compound on the PDHK activity inherent in the PDH solution, a test compound was added and the PDH solution instead of the PDH/hPDHK2 complex solution was added to a blank+test compound well.
Then, 10 μL of substrates (5 mmol/L sodium pyruvate, 5 mmol/L Coenzyme A, 12 mmol/L NAD, 5 mmol/L thiamine pyrophosphate, diluted with assay buffer) were added. The mixture was incubated at room temperature for 90 min, and the residual PDH activity was measured. […]

Molecules are shown by their SMILES.

Chain of human PDHK1 (hPDHK1) (Q15118 29-436): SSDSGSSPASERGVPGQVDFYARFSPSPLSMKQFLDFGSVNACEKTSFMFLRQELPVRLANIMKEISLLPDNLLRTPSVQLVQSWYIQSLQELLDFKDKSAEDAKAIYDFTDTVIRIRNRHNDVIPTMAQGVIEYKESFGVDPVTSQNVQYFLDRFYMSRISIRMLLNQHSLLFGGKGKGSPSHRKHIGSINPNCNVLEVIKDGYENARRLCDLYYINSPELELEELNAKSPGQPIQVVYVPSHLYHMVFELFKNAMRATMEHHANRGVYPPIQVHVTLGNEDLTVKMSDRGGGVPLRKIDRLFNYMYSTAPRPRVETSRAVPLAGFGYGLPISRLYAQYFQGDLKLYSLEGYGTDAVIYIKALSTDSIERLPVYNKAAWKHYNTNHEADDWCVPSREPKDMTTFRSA

As usually defined, the IC50 is the midpoint of a concentration-inhibition curve. With `C[C@H]1CN(C(=O)C2Cc3ccccc3C2)Cc2cnc([C@@](C)(O)C(F)(F)F)n21` [Example 3, (2,3-dihydro-1H-inden-2-yl)((S)-5-methyl-3-((R)-1,1,1-trifluoro-2-hydroxypropan-2-yl)-5,6-dihydroimidazo[1,5-a]pyrazin-7(8H)-yl)methanone], the IC50 on human PDHK1 (hPDHK1) came out at 16 nM; at human PDHK2 (hPDHK2) it was 14 nM.
`C[C@H]1CN(C(=O)c2nn(C)c3cc(F)cc(F)c23)Cc2cnc([C@@](C)(O)C(F)(F)F)n21` [Example 7]: the IC50 was 8 nM on human PDHK1 (hPDHK1) and 10 nM at human PDHK2 (hPDHK2).
As for `C[C@H]1CN(C(=O)c2ccc(C3(O)CCC3)cc2)Cc2cnc([C@@](C)(O)C(F)(F)F)n21` [Example 51], the concentration for half-maximal inhibition (IC50) on human PDHK1 (hPDHK1) was 4 nM; at human PDHK2 (hPDHK2), 6 nM.
`C[C@H]1CN(C(=O)c2[nH]nc(C3CC3)c2Cl)Cc2onc([C@@](C)(O)C(F)(F)F)c21` [Example 112]: the 50% inhibitory concentration (IC50) on human PDHK1 (hPDHK1) worked out at 3 nM; at human PDHK2 (hPDHK2), 5 nM.
The matching figures for `C[C@H]1CN(C(=O)c2cnn(-c3ccc(F)cc3)c2C(F)(F)F)Cc2cnc([C@@](C)(O)C(F)(F)F)n21` [Example 17]: 8 nM and 7 nM.
Turning to `C[C@H]1CN(C(=O)C2(C)CN(c3ccc(F)cn3)C2)Cc2cnc([C@@](C)(O)C(F)(F)F)n21` [Example 90], the concentration for half-maximal inhibition (IC50) is 66 nM on human PDHK1 (hPDHK1) and 45 nM on human PDHK2 (hPDHK2).
The matching figures for `C[C@H]1CN(C(=O)c2c(Cl)c(C3CC3)nn2C)Cc2cnc([C@@](C)(O)C(F)(F)F)n21` [Example 22]: 6 nM and 8 nM.
On to `C[C@H]1CN(C(=O)c2n[nH]c3ccccc23)Cc2onc([C@@](C)(O)C(F)(F)F)c21` [Example 101], for which, at human PDHK1 (hPDHK1), the 50% inhibitory concentration (IC50) is under 3 nM and the inhibition at 0.003 µM is 69%. Further, on human PDHK2 (hPDHK2), the IC50 is 4 nM.
As for `C[C@H]1CN(C(=O)c2cc(C3CC3)nn2C)Cc2onc([C@@](C)(O)C(F)(F)F)c21` [Example 108], the values for the IC50 at human PDHK1 (hPDHK1) and at human PDHK2 (hPDHK2) were 5 nM and 6 nM, respectively.
With `C[C@H]1CN(C(=O)c2cccc(-c3ccccn3)c2)Cc2cnc([C@@](C)(O)C(F)(F)F)n21` [Example 49], the half-maximal inhibitory concentration (IC50) on human PDHK1 (hPDHK1) and on human PDHK2 (hPDHK2) was 3 nM each time.
On to `C[C@H]1CN(C(=O)c2ccnc(-c3ccc(F)cc3)c2)Cc2cnc([C@@](C)(O)C(F)(F)F)n21` [Example 48, (2-(4-fluorophenyl)pyridin-4-yl)((S)-5-methyl-3-((R)-1,1,1-trifluoro-2-hydroxypropan-2-yl)-5,6-dihydroimidazo[1,5-a]pyrazin-7(8H)-yl)methanone], for which, at human PDHK1 (hPDHK1), the concentration for half-maximal inhibition (IC50) is under 3 nM and the inhibition at 0.003 µM is 88%. Further, the IC50 at human PDHK2 (hPDHK2) was under 3 nM. The “hPDHK2 inhibitory rate at the lowest concentration of the test compound” value at human PDHK2 (hPDHK2) (lowest concentration of the test compound in the assay (<3 nmol/L), shown when IC50 value could not be calculated) is listed as 81%.
Take `C[C@H]1CN(C(=O)c2c3c(F)cc(F)cc3nn2C)Cc2cnc([C@@](C)(O)C(F)(F)F)n21` [Example 6]: the half-inhibitory concentration (IC50) at human PDHK1 (hPDHK1) and on human PDHK2 (hPDHK2) was 11 nM each time.
On to `C[C@H]1CN(C(=O)c2cc(-c3ccc(F)cc3F)nn2C)Cc2cnc([C@@](C)(O)C(F)(F)F)n21` [Example 47], for which the IC50 at human PDHK1 (hPDHK1) was under 3 nM; at human PDHK2 (hPDHK2), 4 nM. In addition, the inhibition at 0.003 µM on human PDHK1 (hPDHK1) is 53%.
Consider `C[C@H]1CN(C(=O)c2n[nH]c3ccc(F)cc23)Cc2onc([C@@](C)(O)C(F)(F)F)c21` [Example 104], for which the 50% inhibitory concentration (IC50) was found to be 4 nM on human PDHK1 (hPDHK1) and 6 nM on human PDHK2 (hPDHK2).
For the compound `CC(=O)N1CCc2ccccc2[C@H]1C(=O)N1Cc2onc([C@@](C)(O)C(F)(F)F)c2[C@@H](C)C1` [Example 107], the IC50 was determined as 5 nM at human PDHK1 (hPDHK1) and 6 nM at human PDHK2 (hPDHK2).
Consider `C[C@H]1CN(C(=O)c2ccc(-c3ccc(C#N)cc3)cn2)Cc2cnc([C@@](C)(O)C(F)(F)F)n21` [Example 45], for which the IC50 on human PDHK1 (hPDHK1) was 9 nM; at human PDHK2 (hPDHK2), 8 nM.
`C[C@H]1CN(C(=O)c2cc(C#N)nn2C2CC2)Cc2onc([C@@](C)(O)C(F)(F)F)c21` [Example 114]: the IC50 at human PDHK1 (hPDHK1) is 5 nM; on human PDHK2 (hPDHK2), 7 nM.
